Results published in ChEMBL document CHEMBL5729431, “Benzisoxazole sulfonamide derivatives” (2022).

Experiments:
[1] = molecular target: Histone acetyltransferase KAT6A (Homo sapiens, UniProt Q92794); assay: (§1) Kat6A Assay 1: A. Compound preparation 1. Prepare 10 mM stock solutions in 100% DMSO from solid material 2. Serial dilute 10 mM, 1 mM or 0.1 mM compound stocks 3-fold in 100% DMSO for 11-point dose responseB. Reagent preparation 1. Prepare 1× assay buffer containing 10 mM Tris HCL pH 8.0, 2.5 mM NaCl, 0.5 mM EDTA, 0.005% BSG and 0.02% Tween-20 2. Dilute Histone peptide (CPC Scientific) and AcCoA (Sigma) together in assay buffer to 2×. 3. Dilute KAT enzyme in assay buffer to 2×.C. Enzyme reaction 1. Final reaction conditions for each KAT assay in a 20 ul assay reaction volume: ii. KAT6A 15 nM, 1 uM AcCoA, 2 uM H3 1-21 peptide, 45-minute reaction 2. Add 0.5 ul of diluted compound to the assay plate (384-well V-bottom polypropylene plates) or 0.5 ul of DMSO for control wells. 3. Add 10 ul of 2× Histone peptide/2×AcCoA mix to the assay plate. 4. Add 10 ul of 2× enzyme to the assay plate. 5. Stop the reaction after the indicated time with the addition of 2 ul of 5% formic acid 6. Each reaction was analyzed using self-assembled monolayer desorption/ionization time-of-flight mass spectrometry (Mrksich, Milan (2008) Mass Spectrometry of Self-Assembled Monolayers: A New Tool for Molecular Surface Science ACS Nano 2008 2 (1), 7-18; SAMDI Tech, Inc. (Chicago, Ill.)). 7. […]
[2] = molecular target: Histone acetyltransferase KAT6B (Homo sapiens, UniProt Q8WYB5); assay: as §1, with “Kat6B” for “Kat6A”, “KAT6B 25” for “ii. KAT6A 15”, “60-minute” for “45-minute”
[3] = molecular target: T1, Histone acetyltransferase KAT8 (Homo sapiens, UniProt Q9H7Z6); assay: as §1, with “Kat8 Assay: TBDA.” for “Kat6A Assay 1: A.”, “KAT8” for “ii. KAT6A”
T1 sequence (Q9H7Z6 whole entry): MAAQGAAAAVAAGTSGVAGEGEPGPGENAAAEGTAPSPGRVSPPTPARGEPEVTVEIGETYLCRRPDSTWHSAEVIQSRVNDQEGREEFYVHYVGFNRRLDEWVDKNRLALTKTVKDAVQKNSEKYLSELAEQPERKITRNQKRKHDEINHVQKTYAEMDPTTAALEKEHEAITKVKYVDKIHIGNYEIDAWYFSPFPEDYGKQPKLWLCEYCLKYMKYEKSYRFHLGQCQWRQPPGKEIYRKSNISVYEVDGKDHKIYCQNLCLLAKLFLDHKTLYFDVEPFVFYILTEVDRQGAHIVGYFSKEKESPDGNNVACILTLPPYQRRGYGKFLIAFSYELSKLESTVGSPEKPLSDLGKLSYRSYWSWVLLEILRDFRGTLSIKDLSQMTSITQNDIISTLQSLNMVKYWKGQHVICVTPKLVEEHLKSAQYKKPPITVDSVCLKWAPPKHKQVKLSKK

[4] = molecular target: Histone acetyltransferase KAT5 (Homo sapiens, UniProt Q92993); assay: as §1, with “Kat5 Assay:” for “Kat6A Assay 1:”, “KAT5 25” for “ii. KAT6A 15”, “H4” for “H3”, “30-minute” for “45-minute”
[5] = molecular target: Histone acetyltransferase KAT7 (Homo sapiens, UniProt O95251); assay: as §1, with “Kat7 Assay:” for “Kat6A Assay 1:”, “KAT7 12.5” for “ii. KAT6A 15”
Histone acetyltransferase KAT7, sequence (O95251 whole entry): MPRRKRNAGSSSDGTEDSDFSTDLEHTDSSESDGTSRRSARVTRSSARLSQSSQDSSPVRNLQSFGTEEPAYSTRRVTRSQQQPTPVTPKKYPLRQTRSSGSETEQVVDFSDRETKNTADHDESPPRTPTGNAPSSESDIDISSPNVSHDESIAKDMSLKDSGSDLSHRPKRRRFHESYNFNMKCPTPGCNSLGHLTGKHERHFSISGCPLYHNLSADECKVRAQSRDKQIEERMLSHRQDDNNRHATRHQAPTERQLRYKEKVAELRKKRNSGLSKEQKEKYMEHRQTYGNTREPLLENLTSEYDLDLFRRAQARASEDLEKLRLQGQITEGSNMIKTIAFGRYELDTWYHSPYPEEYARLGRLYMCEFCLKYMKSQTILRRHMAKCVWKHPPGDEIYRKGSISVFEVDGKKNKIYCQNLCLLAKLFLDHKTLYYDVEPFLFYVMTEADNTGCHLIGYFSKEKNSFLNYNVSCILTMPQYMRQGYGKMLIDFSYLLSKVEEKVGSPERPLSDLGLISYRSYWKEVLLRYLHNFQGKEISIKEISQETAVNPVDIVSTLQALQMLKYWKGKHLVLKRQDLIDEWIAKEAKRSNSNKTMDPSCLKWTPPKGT

Histone acetyltransferase KAT5, sequence (Q92993 whole entry): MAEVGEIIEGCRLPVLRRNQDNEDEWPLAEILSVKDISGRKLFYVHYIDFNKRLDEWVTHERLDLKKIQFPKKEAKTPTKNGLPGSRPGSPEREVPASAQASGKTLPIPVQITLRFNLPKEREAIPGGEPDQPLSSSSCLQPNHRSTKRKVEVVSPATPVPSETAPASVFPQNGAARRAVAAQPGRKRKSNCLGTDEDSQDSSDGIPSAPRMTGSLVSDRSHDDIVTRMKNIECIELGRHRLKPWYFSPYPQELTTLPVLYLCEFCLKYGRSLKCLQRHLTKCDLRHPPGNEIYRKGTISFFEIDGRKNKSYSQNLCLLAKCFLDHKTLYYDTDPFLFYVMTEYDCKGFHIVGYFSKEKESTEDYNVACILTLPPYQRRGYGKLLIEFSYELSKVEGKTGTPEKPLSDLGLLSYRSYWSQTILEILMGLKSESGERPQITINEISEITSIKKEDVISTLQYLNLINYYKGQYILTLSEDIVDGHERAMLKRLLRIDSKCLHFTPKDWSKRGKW
Histone acetyltransferase KAT6B, sequence (Q8WYB5 whole entry): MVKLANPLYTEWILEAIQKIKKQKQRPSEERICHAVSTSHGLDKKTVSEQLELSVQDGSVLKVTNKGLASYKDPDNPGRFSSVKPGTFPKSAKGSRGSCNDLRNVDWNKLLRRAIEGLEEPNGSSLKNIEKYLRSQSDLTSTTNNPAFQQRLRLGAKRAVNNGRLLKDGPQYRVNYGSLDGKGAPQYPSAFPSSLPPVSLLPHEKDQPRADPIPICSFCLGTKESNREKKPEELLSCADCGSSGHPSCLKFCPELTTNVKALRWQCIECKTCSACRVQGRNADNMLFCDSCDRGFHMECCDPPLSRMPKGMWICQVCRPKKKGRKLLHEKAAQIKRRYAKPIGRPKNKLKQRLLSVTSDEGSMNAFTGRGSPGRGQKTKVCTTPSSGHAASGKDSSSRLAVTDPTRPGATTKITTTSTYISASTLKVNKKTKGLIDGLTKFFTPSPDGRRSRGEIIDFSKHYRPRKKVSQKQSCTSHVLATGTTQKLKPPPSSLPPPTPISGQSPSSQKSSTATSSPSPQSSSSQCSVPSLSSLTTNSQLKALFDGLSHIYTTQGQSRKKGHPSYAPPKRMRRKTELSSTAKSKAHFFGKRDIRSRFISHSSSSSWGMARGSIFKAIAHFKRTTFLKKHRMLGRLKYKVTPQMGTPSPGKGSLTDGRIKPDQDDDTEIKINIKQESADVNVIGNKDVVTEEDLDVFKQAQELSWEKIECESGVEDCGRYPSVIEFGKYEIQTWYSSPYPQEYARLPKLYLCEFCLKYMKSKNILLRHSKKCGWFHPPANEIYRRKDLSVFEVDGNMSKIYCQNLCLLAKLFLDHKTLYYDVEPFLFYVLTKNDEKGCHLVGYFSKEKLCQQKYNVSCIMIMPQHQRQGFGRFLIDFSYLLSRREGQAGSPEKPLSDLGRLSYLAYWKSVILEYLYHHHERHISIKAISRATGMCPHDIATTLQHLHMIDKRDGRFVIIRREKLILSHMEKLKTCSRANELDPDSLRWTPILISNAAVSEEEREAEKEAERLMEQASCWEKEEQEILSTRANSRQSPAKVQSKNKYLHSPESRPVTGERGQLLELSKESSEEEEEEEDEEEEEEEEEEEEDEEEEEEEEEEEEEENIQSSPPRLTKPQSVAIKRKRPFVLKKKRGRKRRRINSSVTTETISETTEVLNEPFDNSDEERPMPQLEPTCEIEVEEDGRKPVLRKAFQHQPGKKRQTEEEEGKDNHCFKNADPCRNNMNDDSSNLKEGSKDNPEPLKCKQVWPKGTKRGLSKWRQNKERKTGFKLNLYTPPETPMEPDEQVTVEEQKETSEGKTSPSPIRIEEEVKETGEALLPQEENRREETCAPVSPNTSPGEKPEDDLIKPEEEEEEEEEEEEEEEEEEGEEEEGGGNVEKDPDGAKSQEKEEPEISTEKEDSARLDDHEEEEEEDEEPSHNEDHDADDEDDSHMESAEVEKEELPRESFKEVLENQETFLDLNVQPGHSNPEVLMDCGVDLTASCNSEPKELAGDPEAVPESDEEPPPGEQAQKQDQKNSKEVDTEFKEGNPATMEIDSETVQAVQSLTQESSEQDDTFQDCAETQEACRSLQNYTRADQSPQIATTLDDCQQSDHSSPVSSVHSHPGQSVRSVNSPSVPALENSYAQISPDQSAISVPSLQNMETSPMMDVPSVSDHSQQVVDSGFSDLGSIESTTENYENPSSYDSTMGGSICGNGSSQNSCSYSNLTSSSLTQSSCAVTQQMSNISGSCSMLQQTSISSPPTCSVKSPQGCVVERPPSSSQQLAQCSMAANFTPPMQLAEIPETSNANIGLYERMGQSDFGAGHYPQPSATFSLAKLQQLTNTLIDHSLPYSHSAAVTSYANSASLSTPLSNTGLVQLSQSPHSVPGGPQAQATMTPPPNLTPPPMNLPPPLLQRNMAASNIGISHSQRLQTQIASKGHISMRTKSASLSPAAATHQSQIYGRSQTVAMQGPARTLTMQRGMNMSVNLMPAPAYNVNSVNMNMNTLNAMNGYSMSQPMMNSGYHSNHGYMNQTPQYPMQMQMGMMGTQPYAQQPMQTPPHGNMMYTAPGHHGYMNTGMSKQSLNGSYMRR

COc1cc(Cn2cccn2)cc2onc(NS(=O)(=O)c3ccccc3)c12
Ki [1]: 0.0103 µM | Ki [2]: 0.0608 µM | Ki [3]: 20.6 µM | Ki [4]: 5.98 µM | Ki [5]: 0.9 µM
